The term EC50 denotes the midpoint of the concentration-response curve. Low readings indicate higher potency in that assay, high ones lower potency in that assay.

This passage reports EC50 results from BindingDB's records for doi:10.7270/Q2SN07DK (Burnham Center For Chemical Genomics, 2010).

The target in the assay is Beta-galactosidase (Escherichia coli, UniProt Q8VNN2). As to the kind of experiment: PubChem AID 485352.

Structures are written as SMILES.

Chain of Beta-galactosidase (Q8VNN2 whole entry): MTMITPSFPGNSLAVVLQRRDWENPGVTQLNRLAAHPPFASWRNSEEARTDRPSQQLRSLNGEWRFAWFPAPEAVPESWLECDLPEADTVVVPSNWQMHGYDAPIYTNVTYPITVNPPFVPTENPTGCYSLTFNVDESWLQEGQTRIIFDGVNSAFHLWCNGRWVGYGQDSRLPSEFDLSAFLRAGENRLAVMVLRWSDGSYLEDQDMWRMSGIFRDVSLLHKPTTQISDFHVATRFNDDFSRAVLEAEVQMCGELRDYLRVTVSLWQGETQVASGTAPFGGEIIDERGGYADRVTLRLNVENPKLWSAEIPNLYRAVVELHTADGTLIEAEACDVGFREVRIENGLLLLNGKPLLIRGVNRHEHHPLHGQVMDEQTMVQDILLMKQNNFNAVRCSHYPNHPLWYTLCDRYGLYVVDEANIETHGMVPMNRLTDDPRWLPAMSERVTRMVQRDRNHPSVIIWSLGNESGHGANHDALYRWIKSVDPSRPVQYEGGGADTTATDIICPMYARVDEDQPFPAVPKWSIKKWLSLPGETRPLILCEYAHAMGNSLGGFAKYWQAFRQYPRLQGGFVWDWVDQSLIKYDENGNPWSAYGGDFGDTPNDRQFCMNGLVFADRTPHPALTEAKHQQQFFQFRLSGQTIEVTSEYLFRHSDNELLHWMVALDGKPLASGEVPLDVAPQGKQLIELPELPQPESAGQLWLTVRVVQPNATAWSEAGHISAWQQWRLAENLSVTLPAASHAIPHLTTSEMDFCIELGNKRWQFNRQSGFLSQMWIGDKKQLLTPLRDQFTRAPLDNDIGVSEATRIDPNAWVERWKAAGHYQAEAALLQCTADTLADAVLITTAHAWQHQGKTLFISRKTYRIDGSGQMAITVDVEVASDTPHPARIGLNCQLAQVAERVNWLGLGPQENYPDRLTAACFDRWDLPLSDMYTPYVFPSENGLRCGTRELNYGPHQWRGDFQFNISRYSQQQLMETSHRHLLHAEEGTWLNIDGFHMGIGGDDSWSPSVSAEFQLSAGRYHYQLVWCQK

As to `CCOC(=O)C1C(C)=NC2=C(C(=O)CC(c3cccs3)C2)C1c1cccs1` (stereo unspecified) [2-Methyl-5-oxo-4,7-di-thiophen-2-yl-1,4,5,6,7,8-hexahydro-quinoline-3-carboxylic acid ethyl ester], the concentration giving a half-maximal response (EC50) came to 39.3 µM.
